According to patent US20250034136A1 (Nimbus Wadjet, Inc., priority 2023, published 2025):

How the values were obtained:
[1] = tested on: p21 induction in HCT116 cells; test: p21 induction in HCT116 cells; format: cell-based; details: Homo sapiens, HCT-116, 24 h, HCT116 cells, 24 h compound incubation; read-out: P21_EC50
In short: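 EC50 from non-linear curve fit of p21 immunofluorescence (800 nm), with GAPDH (700 nm) read alongside. DMSO and a reference WRN inhibitor served as low and high controls. Cells (2,000/well) got 11 compound concentrations in duplicate for 24 h at 37 °C.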

[2] = target: WRN (BV08), human Werner helicase (Uniprot Q14191, amino acids 517-1235 with L1074F point mutation) (Homo sapiens (Human), UniProt Q14191, L1074F); test: WRN (BV08) ADP-Glo assay; format: biochemical; details: class symbols A-E, read-out: ADP-Glo_hWRN_IC50
WRN (BV08), human Werner helicase (Uniprot Q14191, amino acids 517-1235 with L1074F point mutation), sequence (Q14191 other isoform, or with tags, fused parts or gaps L1074F (already in the parent)): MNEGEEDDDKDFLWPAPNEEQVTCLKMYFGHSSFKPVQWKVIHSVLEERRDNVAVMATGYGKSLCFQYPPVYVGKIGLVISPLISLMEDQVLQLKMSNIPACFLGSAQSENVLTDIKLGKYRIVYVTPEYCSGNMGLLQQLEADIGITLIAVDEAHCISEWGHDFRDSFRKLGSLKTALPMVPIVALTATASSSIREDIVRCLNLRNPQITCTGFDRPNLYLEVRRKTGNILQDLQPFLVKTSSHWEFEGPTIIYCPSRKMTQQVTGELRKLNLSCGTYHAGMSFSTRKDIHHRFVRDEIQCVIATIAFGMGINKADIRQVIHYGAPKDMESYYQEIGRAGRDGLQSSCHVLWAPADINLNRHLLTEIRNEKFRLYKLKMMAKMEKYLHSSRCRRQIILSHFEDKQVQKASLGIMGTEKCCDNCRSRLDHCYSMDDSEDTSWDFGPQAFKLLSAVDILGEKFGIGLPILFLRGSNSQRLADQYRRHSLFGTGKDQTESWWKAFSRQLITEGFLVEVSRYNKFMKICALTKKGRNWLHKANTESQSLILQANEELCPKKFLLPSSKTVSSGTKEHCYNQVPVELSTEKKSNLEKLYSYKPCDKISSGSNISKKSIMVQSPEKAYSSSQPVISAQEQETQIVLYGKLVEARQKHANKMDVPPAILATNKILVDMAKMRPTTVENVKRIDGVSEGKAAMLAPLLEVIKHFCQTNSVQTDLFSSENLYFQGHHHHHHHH

For `CCc1c(N2CCN(C(=O)c3c(F)cnc(OC)c3O)CC2)c(=O)c2ncc(C)nc2n1CC(=O)Nc1ccc(C(F)(F)F)cc1Cl` [I-62, N-(2-chloro-4-(trifluoromethyl)phenyl)-2-(6-ethyl-7-(4-(5-fluoro-3-hydroxy-2-methoxyisonicotinoyl)piperazin-1-yl)-3-methyl-8-oxopyrido[2,3-b]pyrazin-5(8H)-yl)acetamide], the EC50 [1] was over 5000 nM and the IC50 [2] was 5 to 50 nM.
`CCc1c(N2CCN(C(=O)c3ncnc(C)c3O)CC2)c(=O)c2nc(-c3ccnc(OC)c3)cnc2n1CC(=O)Nc1ccc(C(F)(F)F)cc1Cl` [I-7, N-(2-chloro-4-(trifluoromethyl)phenyl)-2-(6-ethyl-7-(4-(5-hydroxy-6-methylpyrimidine-4-carbonyl)piperazin-1-yl)-2-(2-methoxypyridin-4-yl)-8-oxopyrido[2,3-b]pyrazin-5(8H)-yl)acetamide] was tested, and the EC50 [1] was over 5000 nM and the IC50 [2] was 5 to 50 nM.
With `CCc1c(N2CCN(C(=O)c3ncnc(C)c3O)[C@H]3CC[C@@H]32)c(=O)c2nc(N3CCOCC3)cnc2n1CC(=O)Nc1ccc(C(F)(F)F)cc1Cl` [I-250, N-[2-chloro-4-(trifluoromethyl)phenyl]-2-{6-ethyl-7-[(1S,6S)-5-(5-hydroxy-6-methylpyrimidine-4-carbonyl)-2,5-diazabicyclo[4.2.0]octan-2-yl]-2-(morpholin-4-yl)-8-oxo-5H,8H-pyrido[2,3-b]pyrazin-5-yl}acetamide] the EC50 [1] was under 500 nM and the IC50 [2] was 5 to 50 nM.
`CCc1c(N2CCN(C(=O)c3c(OC)ncc(C(F)F)c3O)[C@H]3CC[C@@H]32)c(=O)c2nc(N(C)C)cnc2n1CC(=O)Nc1ccc(C(F)(F)F)cc1Cl` [I-280, N-[2-chloro-4-(trifluoromethyl)phenyl]-2-{7-[(1S,6S)-5-[5-(difluoromethyl)-4-hydroxy-2-methoxypyridine-3-carbonyl]-2,5-diazabicyclo[4.2.0]octan-2-yl]-2-(dimethylamino)-6-ethyl-8-oxo-5H,8H-pyrido[2,3-b]pyrazin-5-yl}acetamide] showed an EC50 [1] of over 5000 nM and an IC50 [2] of 5 to 50 nM.
With `CCc1c(N2CCN(C(=O)c3ncnc(C)c3O)CC2)c(=O)c2nc3cc(C)sc3nc2n1CC(=O)Nc1ccc(C(F)(F)F)cc1Cl` [I-61, N-(2-chloro-4-(trifluoromethyl)phenyl)-2-(7-ethyl-6-(4-(5-hydroxy-6-methylpyrimidine-4-carbonyl)piperazin-1-yl)-2-methyl-5-oxopyrido[2,3-b]thieno[3,2-e]pyrazin-8(5H)-yl)acetamide] the EC50 [1] was under 500 nM and the IC50 [2] was 5 to 50 nM.
With `CCc1c(N2CCN(C(=O)c3ncnc(C)c3O)[C@H]3CC[C@@H]32)c(=O)c2nc(N(C)[C@@H]3CC[C@@H](O)C3)cnc2n1CC(=O)Nc1ccc(C(F)(F)F)cc1Cl` [I-301, N-[2-chloro-4-(trifluoromethyl)phenyl]-2-{6-ethyl-7-[(1S,6S)-5-(5-hydroxy-6-methylpyrimidine-4-carbonyl)-2,5-diazabicyclo[4.2.0]octan-2-yl]-2-{[(1R,3R)-3-hydroxycyclopentyl](methyl)amino}-8-oxo-5H,8H-pyrido[2,3-b]pyrazin-5-yl}acetamide] the EC50 [1] was under 500 nM and the IC50 [2] was 5 to 50 nM.
`CCc1c(N2CCN(C(=O)c3ncnc(C)c3O)CC2)c(=O)c2nc(CO)cnc2n1CC(=O)Nc1ccc(C(F)(F)F)cc1Cl` [I-25, N-(2-chloro-4-(trifluoromethyl)phenyl)-2-(6-ethyl-7-(4-(5-hydroxy-6-methylpyrimidine-4-carbonyl)piperazin-1-yl)-2-(hydroxymethyl)-8-oxopyrido[2,3-b]pyrazin-5(8H)-yl)acetamide] showed an EC50 [1] of over 5000 nM and an IC50 [2] of 50 to 100 nM.
With `CCc1c(N2CCN(C(=O)c3ncnc(C)c3O)[C@H]3CC[C@@H]32)c(=O)c2nc(N(C)[C@H]3C[C@H](OC)C3)cnc2n1CC(=O)Nc1ccc(C(F)(F)F)cc1Cl` [I-267, N-[2-chloro-4-(trifluoromethyl)phenyl]-2-{6-ethyl-7-[(1S,6S)-5-(5-hydroxy-6-methylpyrimidine-4-carbonyl)-2,5-diazabicyclo[4.2.0]octan-2-yl]-2-{methyl[(1r,3r)-3-methoxycyclobutyl]amino}-8-oxo-5H,8H-pyrido[2,3-b]pyrazin-5-yl}acetamide] the EC50 [1] was under 500 nM and the IC50 [2] was 5 to 50 nM.
`[2H]C([2H])([2H])N(c1cnc2c(n1)c(=O)c(N1CCN(C(=O)c3ncnc(C)c3O)[C@H]3CC[C@@H]31)c(CC)n2CC(=O)Nc1ccc(C(F)(F)F)cc1F)C([2H])([2H])[2H]` [I-214, 2-{2-[di(2H3)methylamino]-6-ethyl-7-[(1S,6S)-5-(5-hydroxy-6-methylpyrimidine-4-carbonyl)-2,5-diazabicyclo[4.2.0]octan-2-yl]-8-oxo-5H,8H-pyrido[2,3-b]pyrazin-5-yl}-N-[2-fluoro-4-(trifluoromethyl)phenyl]acetamide] gave an EC50 [1] of under 500 nM and an IC50 [2] of 5 to 50 nM.
In the case of `CCc1c(N2CCN(C(=O)c3ncnc(C)c3O)[C@@H](C(F)F)C2)c(=O)c2nc(N(C)C)cnc2n1CC(=O)Nc1ccc(C(F)(F)F)cc1Cl` [I-197, N-[2-chloro-4-(trifluoromethyl)phenyl]-2-{7-[(3R)-3-(difluoromethyl)-4-(5-hydroxy-6-methylpyrimidine-4-carbonyl)piperazin-1-yl]-2-(dimethylamino)-6-ethyl-8-oxo-5H,8H-pyrido[2,3-b]pyrazin-5-yl}acetamide], the EC50 [1] is reported as over 5000 nM and the IC50 [2] is reported as 50 to 100 nM.
With `CCc1c(N2CCN(C(=O)c3ncnc(C)c3O)[C@@H]3CC[C@H]32)c(=O)c2nc(N(C)C3CC3)cnc2n1CC(=O)Nc1ccc(C(F)(F)F)cc1Cl` (single isomer, unassigned) [I-119, N-(2-chloro-4-(trifluoromethyl)phenyl)-2-(2-(cyclopropyl(methyl)amino)-6-ethyl-7-(5-(5-hydroxy-6-methylpyrimidine-4-carbonyl)-2,5-diazabicyclo[4.2.0]octan-2-yl)-8-oxopyrido[2,3-b]pyrazin-5(8H)-yl)acetamide] the EC50 [1] was under 500 nM and the IC50 [2] was 5 to 50 nM.
Compound `CCc1c(N2CCN(C(=O)c3ncnc(C)c3O)CC2)c(=O)c2nc(C)c(C)nc2n1CC(=O)Nc1ccc(C(F)(F)F)cc1Cl` [I-64, N-(2-chloro-4-(trifluoromethyl)phenyl)-2-(6-ethyl-7-(4-(5-hydroxy-6-methylpyrimidine-4-carbonyl)piperazin-1-yl)-2,3-dimethyl-8-oxopyrido[2,3-b]pyrazin-5(8H)-yl)acetamide] has an EC50 [1] of 500 to 2000 nM and an IC50 [2] of 5 to 50 nM.
For `CCc1c(N2CCN(C(=O)c3ncnc(C)c3O)CC2)c(=O)c2nc(O)cnc2n1CC(=O)Nc1ccc(C(F)(F)F)cc1Cl` [I-24, N-(2-chloro-4-(trifluoromethyl)phenyl)-2-(6-ethyl-2-hydroxy-7-(4-(5-hydroxy-6-methylpyrimidine-4-carbonyl)piperazin-1-yl)-8-oxopyrido[2,3-b]pyrazin-5(8H)-yl)acetamide], the EC50 [1] was over 5000 nM and the IC50 [2] was 5 to 50 nM.
`CCc1c(N2CCN(C(=O)c3ncnc(C)c3O)[C@H]3CC[C@@H]32)c(=O)c2nc(N(C)C)cnc2n1CC(=O)Nc1ccc(C(F)F)cc1Cl` [I-240, N-[2-chloro-4-(difluoromethyl)phenyl]-2-[2-(dimethylamino)-6-ethyl-7-[(1S,6S)-5-(5-hydroxy-6-methylpyrimidine-4-carbonyl)-2,5-diazabicyclo[4.2.0]octan-2-yl]-8-oxo-5H,8H-pyrido[2,3-b]pyrazin-5-yl]acetamide] showed an EC50 [1] of under 500 nM and an IC50 [2] of 5 to 50 nM.
`CCc1c(N2CCN(C(=O)c3ncnc(C)c3O)C[C@@H]2C)c(=O)c2nc(N(C)C)nnc2n1CC(=O)Nc1ccc(C(F)(F)F)cc1Cl` [I-118, (S)—N-(2-chloro-4-(trifluoromethyl)phenyl)-2-(3-(dimethylamino)-7-ethyl-6-(4-(5-hydroxy-6-methylpyrimidine-4-carbonyl)-2-methylpiperazin-1-yl)-5-oxopyrido[3,2-e] [1,2,4]triazin-8(5H)-yl)acetamide] showed an EC50 [1] of 500 to 2000 nM and an IC50 [2] of 5 to 50 nM.
`CCc1c(N2CCN(C(=O)c3ncnc(C)c3O)[C@H]3CC[C@@H]32)c(=O)c2nc(N[C@H](C)[C@H](C)O)cnc2n1CC(=O)Nc1ccc(C(F)(F)F)cc1Cl` [I-266, N-[2-chloro-4-(trifluoromethyl)phenyl]-2-{6-ethyl-7-[(1S,6S)-5-(5-hydroxy-6-methylpyrimidine-4-carbonyl)-2,5-diazabicyclo[4.2.0]octan-2-yl]-2-{[(2R,3S)-3-hydroxybutan-2-yl]amino}-8-oxo-5H,8H-pyrido[2,3-b]pyrazin-5-yl}acetamide] was tested, and the EC50 [1] was 500 to 2000 nM and the IC50 [2] was 5 to 50 nM.
With `CCc1c(N2CCN(C(=O)c3c(C#N)cnc(C)c3O)CC2)c(=O)c2nc(C)cnc2n1CC(=O)Nc1ccc(C(F)(F)F)cc1Cl` [I-158, N-[2-chloro-4-(trifluoromethyl)phenyl]-2-{7-[4-(5-cyano-3-hydroxy-2-methylpyridine-4-carbonyl)piperazin-1-yl]-6-ethyl-2-methyl-8-oxo-5H,8H-pyrido[2,3-b]pyrazin-5-yl}acetamide] the EC50 [1] was over 5000 nM and the IC50 [2] was 5 to 50 nM.
Compound `CCc1c(N2CCN(C(=O)c3ncnc(C)c3O)[C@H]3CC[C@@H]32)c(=O)c2nc(N3CCC4(COC4)C3)cnc2n1CC(=O)Nc1ccc(C(F)(F)F)cc1Cl` [I-290, N-[2-chloro-4-(trifluoromethyl)phenyl]-2-{6-ethyl-7-[(1S,6S)-5-(5-hydroxy-6-methylpyrimidine-4-carbonyl)-2,5-diazabicyclo[4.2.0]octan-2-yl]-2-{2-oxa-6-azaspiro[3.4]octan-6-yl}-8-oxo-5H,8H-pyrido[2,3-b]pyrazin-5-yl}acetamide] has an EC50 [1] of under 500 nM and an IC50 [2] of 5 to 50 nM.
With `CCc1c(N2CCN(C(=O)c3ncnc(C)c3O)[C@H]3CC[C@@H]32)c(=O)c2nc(OC3CCC3)cnc2n1CC(=O)Nc1ccc(C(F)(F)F)cc1Cl` [I-181, N-[2-chloro-4-(trifluoromethyl)phenyl]-2-{2-cyclobutoxy-6-ethyl-7-[(1S,6S)-5-(5-hydroxy-6-methylpyrimidine-4-carbonyl)-2,5-diazabicyclo[4.2.0]octan-2-yl]-8-oxo-5H,8H-pyrido[2,3-b]pyrazin-5-yl}acetamide] the EC50 [1] was under 500 nM and the IC50 [2] was 5 to 50 nM.
